From PMC2828351 (Bioorganic & medicinal chemistry, 2009)

How the values were obtained:
[1] = biological target: GST-JNK1 (Homo sapiens, UniProt P45983); test: pepJIP1 DELFIA displacement assay; assay type: binding
[2] = biological target: JNK (Homo sapiens, UniProt P45983); test: LanthaScreen kinase activity assay; assay type: biochemical
[3] = biological target: p38α (Homo sapiens, UniProt Q16539); test: Selectivity profile: p38α kinase; assay type: biochemical
[4] = tested on: Akt kinase; test: Selectivity profile: Akt kinase; assay type: biochemical; details: for activity against Akt kinase: no significant inhibition at 100 μM
[5] = biological target: lethal factor (LF) (Bacillus anthracis, UniProt P15917); test: biochemical; assay type: biochemical
[6] = biological target: Furin (Homo sapiens, UniProt P09958); test: Selectivity profile: furin protease; assay type: biochemical
Sequence of Furin (P09958 108-794, species assumed): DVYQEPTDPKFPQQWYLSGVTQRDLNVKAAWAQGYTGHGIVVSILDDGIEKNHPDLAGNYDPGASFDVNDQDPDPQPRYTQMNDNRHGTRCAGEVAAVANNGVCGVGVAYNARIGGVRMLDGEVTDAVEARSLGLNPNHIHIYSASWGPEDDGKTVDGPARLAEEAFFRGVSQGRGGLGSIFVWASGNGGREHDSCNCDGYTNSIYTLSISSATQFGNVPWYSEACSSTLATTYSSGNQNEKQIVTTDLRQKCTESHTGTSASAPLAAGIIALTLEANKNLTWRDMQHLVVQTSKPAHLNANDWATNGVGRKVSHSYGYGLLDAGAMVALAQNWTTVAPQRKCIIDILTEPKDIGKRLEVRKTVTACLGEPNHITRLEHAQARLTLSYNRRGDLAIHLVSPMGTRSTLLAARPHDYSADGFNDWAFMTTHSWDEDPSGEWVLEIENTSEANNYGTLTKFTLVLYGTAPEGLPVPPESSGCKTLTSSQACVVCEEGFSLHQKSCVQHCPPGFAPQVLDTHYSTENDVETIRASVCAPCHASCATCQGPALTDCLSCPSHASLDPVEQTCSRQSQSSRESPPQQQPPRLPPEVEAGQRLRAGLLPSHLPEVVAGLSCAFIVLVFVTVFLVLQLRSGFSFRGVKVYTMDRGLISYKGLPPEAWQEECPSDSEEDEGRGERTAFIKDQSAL

Sequence of GST-JNK1 (P45983 whole entry): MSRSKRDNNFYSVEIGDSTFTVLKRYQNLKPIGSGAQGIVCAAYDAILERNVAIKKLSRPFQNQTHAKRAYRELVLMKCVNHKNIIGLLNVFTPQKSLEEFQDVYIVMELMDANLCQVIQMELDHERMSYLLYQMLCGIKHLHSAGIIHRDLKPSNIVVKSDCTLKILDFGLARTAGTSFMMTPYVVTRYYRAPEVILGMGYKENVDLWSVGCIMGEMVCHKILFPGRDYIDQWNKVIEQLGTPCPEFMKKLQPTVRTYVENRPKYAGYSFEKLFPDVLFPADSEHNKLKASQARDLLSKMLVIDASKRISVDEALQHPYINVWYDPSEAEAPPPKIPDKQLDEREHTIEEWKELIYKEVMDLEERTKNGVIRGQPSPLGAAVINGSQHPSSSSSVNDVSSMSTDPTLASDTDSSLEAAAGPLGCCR
Sequence of JNK (P45983 whole entry): as above
Sequence of lethal factor (LF) (P15917 34-809 limits assumed): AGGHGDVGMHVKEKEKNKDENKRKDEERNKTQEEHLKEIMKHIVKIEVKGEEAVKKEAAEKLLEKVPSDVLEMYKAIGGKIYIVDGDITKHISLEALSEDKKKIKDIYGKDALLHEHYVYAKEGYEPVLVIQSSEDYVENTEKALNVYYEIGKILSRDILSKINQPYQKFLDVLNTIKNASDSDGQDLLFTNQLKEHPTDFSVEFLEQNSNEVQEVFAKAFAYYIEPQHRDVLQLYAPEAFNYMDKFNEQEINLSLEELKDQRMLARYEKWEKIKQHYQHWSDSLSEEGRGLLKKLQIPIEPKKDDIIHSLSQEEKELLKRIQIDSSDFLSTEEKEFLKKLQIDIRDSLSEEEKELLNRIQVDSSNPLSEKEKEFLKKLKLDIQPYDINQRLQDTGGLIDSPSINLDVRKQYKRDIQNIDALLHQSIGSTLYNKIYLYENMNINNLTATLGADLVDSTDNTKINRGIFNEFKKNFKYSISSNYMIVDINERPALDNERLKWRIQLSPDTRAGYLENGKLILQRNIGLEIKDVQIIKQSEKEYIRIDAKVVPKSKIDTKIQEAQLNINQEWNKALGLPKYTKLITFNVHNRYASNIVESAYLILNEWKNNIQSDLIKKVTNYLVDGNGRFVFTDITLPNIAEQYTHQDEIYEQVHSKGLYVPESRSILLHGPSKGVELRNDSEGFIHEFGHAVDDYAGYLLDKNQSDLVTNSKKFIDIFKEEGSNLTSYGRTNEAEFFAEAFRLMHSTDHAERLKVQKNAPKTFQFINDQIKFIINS
Sequence of p38α (Q16539 whole entry): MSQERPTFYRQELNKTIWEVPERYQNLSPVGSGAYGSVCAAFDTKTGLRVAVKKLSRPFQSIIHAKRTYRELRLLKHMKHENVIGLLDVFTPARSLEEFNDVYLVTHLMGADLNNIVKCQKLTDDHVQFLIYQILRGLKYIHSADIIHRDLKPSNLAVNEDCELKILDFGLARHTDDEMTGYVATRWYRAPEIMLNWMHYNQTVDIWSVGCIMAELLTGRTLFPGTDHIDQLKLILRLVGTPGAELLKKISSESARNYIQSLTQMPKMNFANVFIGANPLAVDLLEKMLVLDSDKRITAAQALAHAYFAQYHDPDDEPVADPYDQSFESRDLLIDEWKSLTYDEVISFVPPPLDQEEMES

For `Nc1ncnc2nc(Sc3ncc([N+](=O)[O-])s3)[nH]c12` [BI-87C10], the IC50 [1] was under 1 µM and the “activity in kinase assay / JNK inhibition” value [2] was “none of these were good JNK inhibitors”.
Compound `Cn1c(Sc2nc3ccc(Cl)cc3s2)nnc1-c1cccs1` [BI-87F11] has an IC50 [1] of over 100 µM.
With `Cn1c(Sc2nc3ccc(Cl)cc3s2)nnc1-c1ccc(Cl)cc1Cl` [BI-87G12] the IC50 [1] was over 100 µM.
For `Nc1ncnc2[nH]c(SCc3ccc(C(=O)O)cc3)nc12` [BI-87C7], the IC50 [1] was over 100 µM and the “activity in kinase assay / JNK inhibition” value [2] was “none of these were good JNK inhibitors”.
`COc1ccc2sc(Sc3ncc([N+](=O)[O-])s3)nc2c1` [BI-87D11] was tested, and the “times less active against p38α (vs JNK)” value [3] was “at least 50 times”, the “Akt, inhibition at 100 μM” value [4] was 5% inhibition at 100 μM and the “activity against Akt kinase” value [4] was “inactive”. For the same compound, the IC50 [5] was over 100 µM, the “activity against lethal factor” value [5] was “inactive” and the “activity against furin” value [6] was “inactive”.
For `CCOc1ccc2nc(Sc3ncc([N+](=O)[O-])s3)sc2c1` [BI-87G2], the IC50 [1] was over 100 µM and the “activity in kinase assay / JNK inhibition” value [2] was “inactive”.
`Cn1c(Sc2ncc([N+](=O)[O-])s2)nc2ccccc21` [BI-87F7] was tested, and the “activity in kinase assay / JNK inhibition” value [2] was “no activity”.
`O=[N+]([O-])c1cnc(Sc2nc3ccc(Cl)cc3s2)s1` [BI-87F8] was tested, and the “activity in kinase assay / JNK inhibition” value [2] was “inactive”.
In the case of `O=[N+]([O-])c1cnc(Sc2nc3ccccc3s2)s1` [BI-87G3, 2-(5-nitrothiazol-2-ylthio)benzo[d]thiazole], the “times less active against p38α (vs JNK)” value [3] is reported as “at least 50 times”, the “Akt, inhibition at 100 μM” value [4] is reported as 2% inhibition at 100 μM and the “activity against Akt kinase” value [4] is reported as “inactive”. For the same compound, the IC50 [5] was over 100 µM, the “activity against lethal factor” value [5] was “inactive” and the “activity against furin” value [6] was “inactive”.
With `O=[N+]([O-])c1cnc(Sc2nc3cc(S(=O)(=O)O)ccc3[nH]2)s1` [BI-87H1] the IC50 [1] was over 100 µM.
`Cn1c(Sc2nc3ccc(Cl)cc3s2)nnc1-c1ccc2ncccc2c1` [BI-87F12] gave an IC50 [1] of over 100 µM.
`O=C(O)c1ccc(CSc2nc3ccccc3[nH]2)cc1` [BI-87D4] was tested, and the IC50 [1] was over 100 µM.
For `O=[N+]([O-])c1cnc(Sc2nc3cc(Cl)ccc3s2)s1` [BI-87F2], the “activity in kinase assay / JNK inhibition” value [2] was “inactive”.
